Several values for one entry are separate records, joined by “and”; a condition that tells them apart may be missing. Equal entries are not always repeated. Inconclusive results and toxic doses are left out.

The test system of this experiment is P388 leukemia ip, CD2F1 mice, survival T/C. Nature of the experiment: NCI In Vivo Anticancer Drug Screen. Data for tumor model P388 Leukemia (intraperitoneal) in CD2F1 (CDF1) mice. Particulars: endpoint: median survival time, higher = longer survival. The procedure, abridged:
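Mice carrying the transplanted tumor received test compound or vehicle. Survival was recorded in each group, and the value is the treated-group measurement divided by that of the vehicle-treated control group.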

Where [1] appears, read: dose: 60.0 mg/kg/injection, schedule: Q01DX005 (ip), vehicle: saline with Tween-80.
Where [2] appears, read: dose: 120.0 mg/kg/injection, schedule: Q01DX005 (ip), vehicle: saline with Tween-80.
Where [3] appears, read: dose: 240.0 mg/kg/injection, schedule: Q01DX005 (ip), vehicle: saline with Tween-80.
Where [4] appears, read: dose: 50.0 mg/kg/injection, schedule: Q01DX005 (ip), vehicle: Klucel (hydroxypropylcellulose) (HPC).
Setting [5] is: dose: 100.0 mg/kg/injection, schedule: Q01DX005 (ip), vehicle: Klucel (hydroxypropylcellulose) (HPC).
[6] abbreviates: dose: 200.0 mg/kg/injection, schedule: Q01DX005 (ip), vehicle: Klucel (hydroxypropylcellulose) (HPC).
[7] abbreviates: dose: 50.0 mg/kg/injection, schedule: Q01DX005 (ip), vehicle: saline.
The mark [8] stands for this setting: dose: 100.0 mg/kg/injection, schedule: Q01DX005 (ip), vehicle: saline.
The mark [9] stands for this setting: dose: 200.0 mg/kg/injection, schedule: Q01DX005 (ip), vehicle: saline.

As for `O=C1c2cccc([N+](=O)[O-])c2C(=O)N1CC[P+](c1ccccc1)(c1ccccc1)c1ccccc1`, the T/C by setting is: (dose: 0.78 mg/kg/injection, schedule: Q01DX009 (ip), vehicle: water) 97 % of control; (dose: 1.56 mg/kg/injection, schedule: Q01DX009 (ip), vehicle: water) 100 % of control; (dose: 3.13 mg/kg/injection, schedule: Q01DX009 (ip), vehicle: water) 94 % of control; (dose: 6.25 mg/kg/injection, schedule: Q01DX009 (ip), vehicle: water) 97 % of control; (dose: 12.5 mg/kg/injection, schedule: Q01DX009 (ip), vehicle: water) 95 % of control; (dose: 25.0 mg/kg/injection, schedule: Q01DX009 (ip), vehicle: water) 100 % of control. Besides, the T/C (dose: 50.0 mg/kg/injection, schedule: Q01DX009 (ip), vehicle: water) is 109 % of control and the T/C (dose: 100.0 mg/kg/injection, schedule: Q01DX009 (ip), vehicle: water) was 107 % of control.
Take `N#Cc1nc(CC(=O)c2ccccc2Cl)c(CC(=O)c2ccccc2Cl)nc1C#N`: the T/C is 100 % of control under setting [1], 94 % of control under setting [2] and 114 % of control under setting [3].
Take `C=C(C)OC1NC(=O)Oc2ccccc21` (configuration not stated): the T/C by setting is: under setting [1], 98 % of control; under setting [2], 109 % of control; under setting [3], 100 % of control.
With `CCCC(=O)CC(=O)Nc1ccccc1`, the T/C (dose: 100.0 mg/kg/injection, schedule: Q01DX001 (ip), vehicle: saline) is 109 % of control; the T/C (dose: 200.0 mg/kg/injection, schedule: Q01DX001 (ip), vehicle: saline) is 118 % of control; the T/C (dose: 400.0 mg/kg/injection, schedule: Q01DX001 (ip), vehicle: saline) is 118 % of control.
`C=C(C[N+](C)(C)C)c1ccc([N+](=O)[O-])cc1`: the T/C under setting [4] was 102 % of control.
As for `Cc1c2cc[n+](C)cc2c(C)c2c1[nH]c1ccc(O)cc12`, the T/C is, setting by setting: (dose: 0.25 mg/kg/injection, schedule: Q04DX003 (ip), vehicle: water) 115 % of control; (dose: 0.25 mg/kg/injection, schedule: Q04DX003 (iv), vehicle: water) 94 % of control; (dose: 0.5 mg/kg/injection, schedule: Q04DX003 (iv), vehicle: water) 93 % of control; (dose: 0.78 mg/kg/injection, schedule: Q04DX003 (ip), vehicle: saline) 152 % of control; (dose: 1.0 mg/kg/injection, schedule: Q04DX003 (ip), vehicle: water) 151 % of control; (dose: 1.0 mg/kg/injection, schedule: Q04DX003 (iv), vehicle: water) 100 % of control. Besides, the T/C (dose: 1.56 mg/kg/injection, schedule: Q04DX003 (ip), vehicle: saline) is 164 % of control; the T/C (dose: 2.0 mg/kg/injection, schedule: Q04DX003 (ip), vehicle: water) is 152 % of control and 161 % of control; the T/C (dose: 2.0 mg/kg/injection, schedule: Q04DX003 (iv), vehicle: water) was 111 % of control; the T/C (dose: 3.12 mg/kg/injection, schedule: Q04DX003 (ip), vehicle: saline) is 172 % of control; the T/C (dose: 3.6 mg/kg/injection, schedule: Q04DX002 (ip), vehicle: saline) is 176 % of control; the T/C (dose: 4.0 mg/kg/injection, schedule: Q04DX003 (iv), vehicle: water) is 99 % of control. The T/C reads like this: (dose: 4.5 mg/kg/injection, schedule: Q04DX002 (ip), vehicle: saline) 151 % of control; (dose: 6.0 mg/kg/injection, schedule: Q04DX002 (ip), vehicle: saline) 188 % of control; (dose: 6.25 mg/kg/injection, schedule: Q04DX003 (ip), vehicle: saline) 150 % of control; (dose: 7.5 mg/kg/injection, schedule: Q04DX002 (ip), vehicle: saline) 94 % of control; (dose: 12.5 mg/kg/injection, schedule: Q04DX003 (ip), vehicle: saline) 170 % of control; (dose: 50.0 mg/kg/injection, schedule: Q04DX003 (ip), vehicle: saline) 93 % of control. Further, the T/C (dose: 100.0 mg/kg/injection, schedule: Q04DX003 (ip), vehicle: saline) is 94 % of control.
Regarding `O=Nc1ccc2ccccc2c1O`, the T/C was 103 % of control (dose: 12.5 mg/kg/injection, schedule: Q01DX001 (ip), vehicle: Klucel (hydroxypropylcellulose) (HPC)); 108 % of control (dose: 25.0 mg/kg/injection, schedule: Q01DX001 (ip), vehicle: Klucel (hydroxypropylcellulose) (HPC)); 111 % of control (dose: 50.0 mg/kg/injection, schedule: Q01DX001 (ip), vehicle: Klucel (hydroxypropylcellulose) (HPC)).
`CN(C)CCC(=O)C(=C/C=C/c1ccccc1)C(=O)CCN(C)C`: the T/C is, setting by setting: (dose: 25.0 mg/kg/injection, schedule: Q01DX005 (ip), vehicle: saline with Tween-80) 100 % of control; (dose: 50.0 mg/kg/injection, schedule: Q01DX005 (ip), vehicle: saline with Tween-80) 121 % of control; (dose: 100.0 mg/kg/injection, schedule: Q01DX005 (ip), vehicle: saline with Tween-80) 123 % of control.
As to `C=C1C(=O)OC2C1C(OC(=O)/C(C)=C\C)CC(C)=C1C(=O)C3OC3(C)C12O` (configuration not stated), the T/C by setting is: (dose: 12.5 mg/kg/injection, schedule: Q01DX005 (ip), vehicle: saline + alcohol) 115 % of control; (dose: 25.0 mg/kg/injection, schedule: Q01DX005 (ip), vehicle: saline + alcohol) 116 % of control; (dose: 50.0 mg/kg/injection, schedule: Q01DX005 (ip), vehicle: saline + alcohol) 115 % of control.
As for `Cc1ccc(N=C(CC(C)C)C2C(=O)c3ccccc3C2=O)cc1`, the T/C is 100 % of control under setting [4], 94 % of control under setting [5] and 99 % of control under setting [6].
As for `COc1cc2c(cc1OC)C(c1ccccc1[N+](=O)[O-])=NCC2`, the T/C under setting [4] was 99 % of control, the T/C under setting [5] was 94 % of control and the T/C under setting [6] was 92 % of control.
On to `C=[CH][Pb]([CH]=C)([CH]=C)[O]C(C)=O`, for which the T/C is, setting by setting: (dose: 1.25 mg/kg/injection, schedule: Q01DX009 (ip), vehicle: saline with Tween-80) 110 % of control and 111 % of control; (dose: 2.5 mg/kg/injection, schedule: Q01DX009 (ip), vehicle: saline with Tween-80) 160 % of control; (dose: 5.0 mg/kg/injection, schedule: Q01DX009 (ip), vehicle: saline with Tween-80) 151 % of control and 188 % of control.
For the compound `CC(C(=O)O)N(CCC#N)CCC#N` (configuration not stated), the T/C is 95 % of control under setting [7], 100 % of control under setting [8] and 95 % of control under setting [9].
In the case of `CN1C2C=C(c3ccccc3)CC1CC2` (configuration not stated), the T/C (dose: 0.75 mg/kg/injection, schedule: Q01DX005 (ip), vehicle: saline) was 94 % of control; the T/C (dose: 1.5 mg/kg/injection, schedule: Q01DX005 (ip), vehicle: saline) was 108 % of control; the T/C (dose: 1.56 mg/kg/injection, schedule: Q01DX005 (ip), vehicle: Klucel (hydroxypropylcellulose) (HPC)) was 105 % of control; the T/C (dose: 3.0 mg/kg/injection, schedule: Q01DX005 (ip), vehicle: saline) was 102 % of control; the T/C (dose: 3.12 mg/kg/injection, schedule: Q01DX005 (ip), vehicle: Klucel (hydroxypropylcellulose) (HPC)) is 103 % of control.
Regarding `O=C(NCc1ccco1)Nc1ccccc1C(F)(F)F`, the T/C under setting [1] was 94 % of control, the T/C under setting [2] was 99 % of control and the T/C under setting [3] was 90 % of control.
With `CCOC(=O)CCC1CCCC(CCC(=O)OCC)C1=O` (configuration not stated), the T/C by setting is: (dose: 50.0 mg/kg/injection, schedule: Q01DX009 (ip), vehicle: other) 105 % of control; (dose: 100.0 mg/kg/injection, schedule: Q01DX009 (ip), vehicle: other) 101 % of control; (dose: 200.0 mg/kg/injection, schedule: Q01DX009 (ip), vehicle: other) 106 % of control.
Regarding `CC1=NN(C(=O)CC(=O)Nc2ccc(C(=O)O)cc2)C(=O)C1N=Nc1ccccc1` (configuration not stated), the T/C is 105 % of control under setting [7], 102 % of control under setting [8] and 108 % of control under setting [9].
